Entries after “also recorded” stand apart in the source; their conditions may differ.
Legend:
[1] = system: c-GMP in slices of thoracic aorta of rats; experiment: Cyclic-GMP measurement in aortic rat tissue (radioimmunoassay); format: cell-based; settings: for levels of cGMP as compared with GTN: isolated rat aorta, FIGS. 25, 27, 33; for cGMP Post-infusion: rat aorta, post-infusion (repeated treatment)
Protocol: GTN (10^−6 M) was added to the chamber and, 1 minute after exposure to the drug, rings (usually 3-5) were taken, wrapped with aluminum foil and immediately frozen in liquid nitrogen for storage. Control sample group was treated with the vehicle solution only. At the time of analysis, rings were thawed, blotted over a dry gauzed and weighted. A known weight of tissue was homogenized in 2 ml ice-cold modified Hank's balanced salt solution containing (in gram/liter) NaCl 8; KCl 0.4; glucose 1; KH2PO4 0.06; Na2HPO4 0.047; Phenol red 0.017 and further containing 25 mM EDTA (disodium salt). The homogenate was centrifuged at 4000 g (force units) for 10 minutes at 2-4° C. and the supernatant was thereafter transferred into fresh pre-cooled test tube containing 1 ml of acetonitrile. The tubes were vortex mixed for a few seconds and subsequently centrifuged at 4000 g for 5 minutes at 2-4° C., to remove the precipitated protein. Each supernatant was transferred into a clean test tube and evaporated to dryness under a stream of nitrogen at 55° C. The dry residue was reconstituted with 10 volumes of Tris-EDTA buffer pH 7.5 (0.05 M Tris containing 4 mM EDTA). Aliquots of 100 μl of the reconstituted solution in duplicate were used for c-GMP measurements using Amersham RIA kit, as is described in Haj-Yehia & Benet [Pharmacology, 1995, 273, 1, pp. 94-100]. Standard curves were plotted with six concentrations (0, 0.5, 1, 2, 4 and 8 pmoles of c-GMP per tube).
The NO-tolerance effect of GTN and NO-donor compounds according to the present invention was measured by following the production of c-GMP in slices of thoracic aorta of rats. Thus, the production of c-GMP was measured as described in the methods section above for the reference NO-donor compound GTN, and for the NO-donors of the present invention Pet-2, Pet-3, Pet-7, Pet-8, Pet-10, Pet-12, Pet-24, Pet-59, Pet-147, Pet-149, Pet-152, Pet-154 and Pet-155.

isolated rat aorta [2] = experiment: In vitro vasorelaxation, cumulative concentration-response curves on rat aortic rings contracted with epinephrine; format: cell-based; settings: isolated rat aorta pre-treated with 1 μM epinephrine
From the text: Male Sprague Dawley rats were anaesthetized using intraperitoneal injection of ketamine and xylazine (50 and 10 milligram per kilogram, respectively) and the thoracic aorta, the large upper portion of the descending aorta, starting at the caudal border of the chest bone, was removed thereafter, while carefully removing the paraadventetial tissue surrounding the vessel. Aortae were cut into rings of 4-5 millimeters and mounted onto the tissue path. The path buffer (Krebs-bicrbonate) was constantly gassed with carbogen and maintained at 37° C. The rings were preloaded under 2 g tension and equilibrated for 90 minutes, while refreshing the buffer every 15 minutes. After stabilization, the rings were contracted with epinephrine (1 μM). Cumulative Concentration-Response Curves (CCRC) were measured for the vasorelaxing effect induced by adding various concentrations, ranging from 10^−10 M to 10^−5 M of Pet-2, Pet-3, Pet-7, Pet-8, Pet-12, Pet-24, Pet-43, Pet-59, Pet-147, Pet-152 and Pet-154, and glyceryltrinitrate (GTN), according to the procedure described in Feelich et al., Molecular Pharmacology, 56:243-253 (1999). The vehicle, which was used for this experiment was water:ethanol:propyleneglycol at proportional ratio of 1:1:1.
The vasorelaxing effect of the thiazole-derived NO-donors according to the present invention was measured on slices of thoracic aorta of rats contracted with epinephrine, as described hereinabove.
The obtained results for Pet-2, Pet-3, Pet-7, Pet-8, Pet-12, Pet-24, Pet-43, Pet-59, Pet-147, Pet-152 and Pet-154 are presented in FIGS. 2-14, and are summarized in Table 3 below.

[3] = system: cGMP in thoracic aorta of rats treated in vivo; experiment: Induction of in vivo nitrate tolerance (16 hour infusion, then cGMP in isolated aorta); design: species or system rat; settings: rats infused in vivo 16 hours, aorta re-exposed to the compound
Protocol: Male Sprague Dawley rats (220 to 250 grams) were housed under constant temperature and humidity conditions. Light was maintained at a 12/12 light dark cycle. Except for 12 hours before the experiment, when food fasting was initiated, all rats had free access to standard rat pellet diet and tap water. The animals were anesthetized by intraperitoneal injection of ketamine and xylazine combination (50 and 10 milligram per kilogram, respectively). […] The catheters were filled with normal saline solution containing 1000 IU/ml of heparin and plugged with a metal pin. Catheters were externalized to the back of the neck region and secured by a polyester felt disk.
After implantation, the rats were individually housed until they regained their preoperative weight and appeared healthy (3 to 4 days post-operation). At this time point (day 0), an osmotic mini-pump (Alza Corp., Palo Alto, Calif.) delivering constant volume (10 μl/hour) of vehicle or drug was connected to one of the intravenous catheters.
For inducing tolerance to the tested NO-donor according to the present invention, the animals received 200 μg/hour of the tested compound for 16 hours (short-term-induced tolerance). A similar number of animals were processed by the same surgical procedure and received the vehicle alone (10 μl/hour of a solution consisting of 30% ethanol and 30% propylene glycol in sterile distilled water for injection).
At the end of the infusion periods used for the development of tolerance (16 hour), the rats were anesthetized as described above, the two catheters were externalized and the delivering catheters were disconnected from the mini-pump. The abdomen was opened by midline incision and the thoracic aorta were isolated, washed and cleaned from the surrounding tissues. Strips of the treated aortas were pooled in chambers containing Krebs-Hanseliet buffer (10 ml), and exposed to 1 μM of the tested NO-donor (final concentration) for 120 seconds. The tissues were quickly collected and frozen in liquid nitrogen for cGMP measurement, described hereinabove.

isolated rat aorta [4] = experiment: In vitro induction of tolerance to NO releasing compounds (vasorelaxation of pre-exposed aortic rings, incl. cross-tolerance); format: cell-based; settings: rat aorta pre-treated with epinephrine and then 0.44 mM of the compound
Protocol: Aortic rings were prepared as described hereinabove, and were exposed to 0.44 mM GTN (vehicle was water:ethanol:propyleneglycol at proportional ratio of 1:1:1) for 1 hour before CCRC construction, to thereby induce tolerance to nitroglycerine. At the end of the tolerance induction period, rings were thrice washed with the path buffer (Krebs-bicrbonate) every 15 minutes for the following hour and then CCRC for vasorelaxation on GTN-induced tolerance rings were constructed for GTN (pretreated versus untreated rings, FIG. 15), in order to verify the ability to induce and measure GTN tolerance induction in vitro
Attempted induction of tolerance to the NO-donating compounds of the present invention was performed under the same conditions as for GTN. Thus, in an exemplary experiment, rings were exposed to 0.44 mM solution of Pet-3 in the attempt to induce tolerance for Pet-3. CCRC were then measured for the vasorelaxing effect of Pet-3 on a group of rings which were pre-exposed to Pet-3 as to induce tolerance to Pet-3, and for an untreated control group. The above protocol was repeated with Pet-2, Pet-7, Pet-8, Pet-12, Pet-24, Pet-43, Pet-149 and Pet-152.
Cross-tolerance studies were conducted using the same technique described above for measuring vasorelaxation of aortic rings from rats. Two groups of aortic rings samples were pre-treated with GTN, then one group was measured for vasorelaxation by GTN and the second group for vasorelaxation by Pet-12, an exemplary NO-donor according to the present invention. For the opposite cross-tolerance studies, two groups of aortic rings samples were pre-treated with Pet-12, then one group was measured for vasorelaxation by GTN and the second group for vasorelaxation by Pet-12.

[5] = system: anesthetized hypertensive Sprague-Dawley male rats; experiment: Hypotensive effects: mean arterial pressure after iv bolus in phenylephrine-treated rats; format: in vivo, rat; settings: rats pre-treated in vivo with phenylephrine; iv bolus 10-100 micrograms
From the text: These techniques were also used to detect tolerance induction by the NO-donors of the present invention and by GTN. For c-GMP levels and tolerance development, the rat's thoracic aorta was isolated after exposure to the tested compound in vivo, and measured as described above in the in vitro assays.
Mean arterial pressure (MAP) was monitored and determined during bolus infusion of Pet-2, Pet-3, Pet-7, Pet-8, Pet-12 and Pet-13. Briefly, polyethylene catheters (PE50) were inserted into the carotid artery and into the jugular vein of anesthetized hypertensive Sprague-Dawley male rats (200-300 grams). A blood pressure recorder was placed within the carotid artery. Phenylephrine (0.1 mg) was then injected and the mean arterial blood pressure (MABP) was monitored continuously until a stable baseline was reached. The hypotensive effects of intravenous (iv) bolus doses (0.1 mg of each tested compound) administered intravenously at the jugular vein in minimal volume of vehicle (0.2 ml per dose) were evaluated. Five minutes were allowed between each dose, during which the maximal decrease in MAP was recorded and a dose-response graph comparing the hypotensive effect of the compounds was constructed.

Structure (SMILES) | levels of cGMP as compared with GTN [1] | vasorelaxation effect as compared with glyceryltrinitrate (words) (isolated rat aorta [2]) | cGMP Post-infusion [1] [pmol/g tissue] | tolerance in vivo: cGMP level in aorta following repeated treatment [3] | tolerance induction after pre-treatment with the same compound (isolated rat aorta [4]) | hypotensive / vasorelaxation effect on heightened mean arterial blood pressure [5] | vasorelaxation effect as compared with glyceryltrinitrate (isolated rat aorta [2]) [fold]
Cc1nc(NC(=O)[C@@H](C)c2ccc(CC(C)C)cc2)sc1CCO[N+](=O)[O-] (stereo in doubt) [Pet-152, 2-(4-Isobutyl-phenyl)-N-[4-methyl-5-(2-nitrooxy-ethyl)-thiazol-2-yl]-propionamide] | increased levels of cGMP | superior vasorelaxation effect | – | – | – | – | –
CCc1nc(C)c(CCO[N+](=O)[O-])s1 [Pet-2, 2-Ethyl-4-methyl-5-(2-nitrooxy-ethyl)-thiazole] | – | superior vasorelaxation effect | 140 ± 13 | absence of tolerance induction; also recorded: absence of tolerance effect; also recorded: remained substantially unchanged | – | – | –
Cc1nc(C)c(CCO[N+](=O)[O-])s1 [Pet-3, 2,4-Dimethyl-5-(2-nitrooxy-ethyl)-thiazole] | increased levels of cGMP | superior vasorelaxation effect | 118 ± 10 | – | absence of tolerance induction | – | –
Cc1nc(N(C)C)sc1CCO[N+](=O)[O-] [Pet-7, Dimethyl-[4-methyl-5-(2-nitrooxy-ethyl)-thiazol-2-yl]-amine] | increased levels of cGMP | superior | 123 ± 12 | – | absence of tolerance induction | vasorelaxation effect | 10
Cc1nc(-c2ccccc2)sc1CCO[N+](=O)[O-] [Pet-8, 4-Methyl-5-(2-nitrooxy-ethyl)-2-phenyl-thiazole] | increased levels of cGMP | superior vasorelaxation effect | 136 ± 12 | – | – | – | –
Cc1nc(N)sc1CCO[N+](=O)[O-] [Pet-10, 4-methyl-5-(2-nitrooxy-ethyl)-thiazole-2-ylamine] | increased levels of cGMP | – | – | – | – | – | –
Cc1nc(CCCCc2nc(C)c(CCO[N+](=O)[O-])s2)sc1CCO[N+](=O)[O-] [Pet-13] | – | – | – | – | – | vasorelaxation effect | –
CNc1cncc(-c2nc(C)c(CCO[N+](=O)[O-])s2)n1 [Pet-24, Methyl-{6-[4-methyl-5-(2-nitrooxy-ethyl)-thiazol-2-yl]-pyrazin-2-yl}-amine] | increased levels of cGMP | – | 112 ± 10 | – | absence of tolerance induction | – | –
Cc1nc(Nc2nc(C)c(CCO[N+](=O)[O-])s2)sc1CCO[N+](=O)[O-] [Pet-43, Bis-[4-methyl-5-(2-nitrooxy-ethyl)-thiazol-2-yl]-amine] | – | superior vasorelaxation effect | – | – | absence of tolerance induction | – | –
Cc1nc(-c2ccc(C(F)(F)F)cc2)sc1CCO[N+](=O)[O-] [Pet-59, 4-Methyl-5-(2-nitrooxy-ethyl)-2-(4-trifluoromethyl-phenyl)-thiazole] | increased levels of cGMP | superior vasorelaxation effect | – | – | – | – | –
CCNc1nc(C)c(CCO[N+](=O)[O-])s1 [Pet-147, Ethyl-[4-methyl-5-(2-nitrooxy-ethyl)-thiazol-2-yl]-amine] | increased levels of cGMP | – | – | – | – | – | –
Cc1nc(Nc2cccc3ccccc23)sc1CCO[N+](=O)[O-] [Pet-149, [4-Methyl-5-(2-nitrooxy-ethyl)-thiazol-2-yl]-naphthalen-1-yl-amine] | increased levels of cGMP | superior vasorelaxation effect | 115 ± 14 | – | absence of tolerance induction | – | –
Cc1nc(NC(=O)c2cccnc2)sc1CCO[N+](=O)[O-] [Pet-154, N-[4-methyl-5-(2-nitrooxy-ethyl)-thiazol-2-yl]-nicotinamide] | increased levels of cGMP | – | – | – | – | – | –
C=CCNc1nc(C)c(CCO[N+](=O)[O-])s1 [Pet-155, allyl-[4-methyl-5-(2-nitrooxy-ethyl)-thiazol-2-yl]-amine] | increased levels of cGMP | superior vasorelaxation effect | – | – | – | – | –
